Experimental findings from publication doi:10.1101/2025.07.03.662851v1 (biorxiv, 2025) are described below.

In the assay the target is T1, recombinant wild-type human asparagine synthetase (ASNS) (Homo sapiens, UniProt P08243).
T1 sequence (P08243 2-561): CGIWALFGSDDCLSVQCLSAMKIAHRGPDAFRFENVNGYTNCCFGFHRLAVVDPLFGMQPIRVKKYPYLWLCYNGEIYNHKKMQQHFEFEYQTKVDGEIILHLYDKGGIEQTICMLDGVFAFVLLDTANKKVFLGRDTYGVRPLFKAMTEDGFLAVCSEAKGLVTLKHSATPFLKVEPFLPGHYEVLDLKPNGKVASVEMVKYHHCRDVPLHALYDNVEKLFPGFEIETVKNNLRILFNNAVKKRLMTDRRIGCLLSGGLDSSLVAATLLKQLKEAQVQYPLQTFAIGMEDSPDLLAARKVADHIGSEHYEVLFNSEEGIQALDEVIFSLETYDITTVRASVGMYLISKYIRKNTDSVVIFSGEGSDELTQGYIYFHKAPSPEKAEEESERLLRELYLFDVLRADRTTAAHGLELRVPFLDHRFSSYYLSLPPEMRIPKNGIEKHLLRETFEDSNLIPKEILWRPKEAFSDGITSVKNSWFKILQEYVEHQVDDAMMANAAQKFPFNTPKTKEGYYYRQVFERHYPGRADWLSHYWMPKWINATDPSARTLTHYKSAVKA
The assay can be described thus: PPi production, continuous NADH-coupled assay. The class given is biochemical.

pKi: −log10 of the molar value.

On to `CC[C@H](N)C(=O)N1C[C@@H](c2ccc(F)cc2)[C@H](O)[C@@H]1C(=O)NC(c1ccccc1)c1ccccc1` [ASX-173], for which the pKi (in general, the negative decadic logarithm of the Ki, by convention in mol/L) is 9.40.
